# Measurements: patent publication US9045445B2, “Glycine transporter-1 inhibitors, methods of making them, and uses thereof” (Albany Molecular Research, Inc., priority 2010, dated 2015)
# Structures can show the parent of a compound that is named as a salt.
# What was measured:
# [1] = target: T1, glycine transporter-1 (GlyT-1) (Homo sapiens, UniProt P48067); assay: [14C]glycine uptake assay in JAR cells endogenously expressing GlyT-1 (scintillation proximity); type: cell-based; conditions: JAR cells, [14C]glycine 5 μM, 3 hour incubation; read-out: GlyT-1 IC50
# T1 construct: JAR cells (ATCC#HTB-144), which endogenously express GlyT-1; host or cells: JAR human choriocarcinoma cells
# T1 sequence (P48067 1-706): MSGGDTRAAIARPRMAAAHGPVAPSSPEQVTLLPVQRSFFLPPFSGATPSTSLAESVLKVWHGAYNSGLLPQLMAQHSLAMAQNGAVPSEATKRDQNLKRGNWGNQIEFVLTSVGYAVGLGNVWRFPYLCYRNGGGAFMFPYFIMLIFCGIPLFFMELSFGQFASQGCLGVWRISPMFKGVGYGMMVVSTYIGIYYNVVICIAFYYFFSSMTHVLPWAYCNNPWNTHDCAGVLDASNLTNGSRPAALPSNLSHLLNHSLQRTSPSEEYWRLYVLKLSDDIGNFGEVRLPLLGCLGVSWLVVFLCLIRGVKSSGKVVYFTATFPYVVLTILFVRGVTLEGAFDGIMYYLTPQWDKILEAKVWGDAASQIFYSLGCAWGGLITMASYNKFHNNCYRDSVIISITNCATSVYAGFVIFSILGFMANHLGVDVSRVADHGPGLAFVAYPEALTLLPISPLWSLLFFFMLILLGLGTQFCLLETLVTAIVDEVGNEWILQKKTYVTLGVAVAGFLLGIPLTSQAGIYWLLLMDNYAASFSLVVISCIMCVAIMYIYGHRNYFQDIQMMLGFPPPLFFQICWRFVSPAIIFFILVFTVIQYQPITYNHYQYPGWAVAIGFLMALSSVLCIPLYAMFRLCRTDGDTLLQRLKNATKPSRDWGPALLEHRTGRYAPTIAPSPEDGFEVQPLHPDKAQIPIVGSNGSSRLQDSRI
# How it was run: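 Human choriocarcinoma JAR cells (endogenous GlyT-1) attached overnight, then pre-incubated 10 min at room temperature with compound in pH 7.4 Hepes uptake buffer containing 5 mM alanine and 0.75% DMSO. Uptake of 5 μM [14C]glycine over 3 h at 37 °C read by scintillation proximity; IC50 from four-parameter fit of nine-point curves.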
# [2] = target: T2, glycine transporter-2 (GlyT-2) (Homo sapiens, UniProt Q9Y345); assay: [14C]glycine uptake assay in HEK-GlyT-2 transfected cells; type: cell-based; conditions: HEK-GlyT-2 cells
# T2 construct: expressed in transfected cells
# T2 sequence (Q9Y345 1-797): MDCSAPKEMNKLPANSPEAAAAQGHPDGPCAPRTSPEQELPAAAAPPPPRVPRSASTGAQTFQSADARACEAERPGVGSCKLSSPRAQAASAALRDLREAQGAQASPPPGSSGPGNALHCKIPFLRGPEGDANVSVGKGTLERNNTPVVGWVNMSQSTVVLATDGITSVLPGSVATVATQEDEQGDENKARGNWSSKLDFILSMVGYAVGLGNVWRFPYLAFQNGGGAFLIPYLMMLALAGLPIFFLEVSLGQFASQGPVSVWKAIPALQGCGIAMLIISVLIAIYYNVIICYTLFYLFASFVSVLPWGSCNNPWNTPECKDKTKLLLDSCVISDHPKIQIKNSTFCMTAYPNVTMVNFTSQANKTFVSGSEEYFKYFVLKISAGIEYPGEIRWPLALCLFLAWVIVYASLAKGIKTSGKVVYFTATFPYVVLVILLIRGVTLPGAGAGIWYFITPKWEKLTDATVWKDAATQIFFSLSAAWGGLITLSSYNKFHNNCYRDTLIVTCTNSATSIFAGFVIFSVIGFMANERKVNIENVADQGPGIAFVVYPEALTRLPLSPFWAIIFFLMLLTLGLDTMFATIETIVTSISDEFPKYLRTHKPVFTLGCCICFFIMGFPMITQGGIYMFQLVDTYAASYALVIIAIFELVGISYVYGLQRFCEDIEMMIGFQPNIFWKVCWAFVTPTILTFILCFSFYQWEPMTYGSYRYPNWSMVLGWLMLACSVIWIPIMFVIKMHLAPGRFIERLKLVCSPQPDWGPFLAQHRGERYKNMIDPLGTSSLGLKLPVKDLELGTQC
SMILES,IC50 [1] [nM],IC50 [2] [nM]
"CCCS(=O)(=O)N1CCN(C2(CNC(=O)c3ccc(OCc4ccccc4)cc3)CCCCC2)CC1 [compound 27, 4-(Benzyloxy)-N-((1-(4-(propylsulfonyl)piperazin-1-yl)cyclohexyl)methyl) benzamide Hydrochloride]",549,635
"CCCS(=O)(=O)N1CCN(C2(CNC(=O)c3cccc(C(F)(F)F)c3)CCCCC2)CC1 [compound 28, N-((1-(4-(Propylsulfonyl)piperazin-1-yl)cyclohexyl)methyl)-3-(trifluoromethyl) benzamide Hydrochloride]",523,> 75000
"CCCS(=O)(=O)N1CCN(C2(CNC(=O)c3cccc(OC)c3)CCCCC2)CC1 [compound 29, 3-Methoxy-N-((1-(4-(propylsulfonyl)piperazin-1-yl)cyclohexyl)methyl) benzamide Hydrochloride]",766,> 75000
"CCCS(=O)(=O)N1CCN(C2(CNC(=O)c3ccc(C)cc3C)CCCCC2)CC1 [compound 30, 2,4-Dimethyl-N-((1-(4-(propylsulfonyl)piperazin-1-yl)cyclohexyl)methyl) benzamide Hydrochloride]",79,> 75000
"CCCS(=O)(=O)N1CCN(C2(CNC(=O)c3cc(Cl)ccc3Cl)CCCCC2)CC1 [compound 32, 2,5-Dichloro-N-((1-(4-(propylsulfonyl)piperazin-1-yl)cyclohexyl)methyl) benzamide Hydrochloride]",71,> 75000
"CCCS(=O)(=O)N1CCN(C2(CNC(=O)c3c(C)cc(C)cc3C)CCCCC2)CC1 [compound 36, 2,4,6-Trimethyl-N-((1-(4-(propylsulfonyl)piperazin-1-yl)cyclohexyl)methyl) benzamide Hydrochloride]",39,> 75000
"CCCS(=O)(=O)N1CCN(C2(CNC(=O)c3ccc(-c4ccccc4)cc3)CCCCC2)CC1 [compound 38, N-((1-(4-(Propylsulfonyl)piperazin-1-yl)cyclohexyl)methyl) biphenyl-4-carboxamide Hydrochloride]",172,1400
"CCCS(=O)(=O)N1CCN(C2(CNC(=O)c3ccc(F)cc3F)CCCCC2)CC1 [compound 39, 2,4-Difluoro-N-((1-(4-(propylsulfonyl)piperazin-1-yl)cyclohexyl)methyl) benzamide Hydrochloride]",132,≥ 75000
"CCCS(=O)(=O)N1CCN(C2(CNC(=O)c3c(N)cccc3F)CCCCC2)CC1 [compound 41, 2-Amino-6-fluoro-N-((1-(4-(propylsulfonyl)piperazin-1-yl)cyclohexyl)methyl) benzamide Hydrochloride]",71,> 75000
"CCCS(=O)(=O)N1CCN(C2(CNC(=O)c3ccccc3C)CCCCC2)CC1 [compound 42, 2-Methyl-N-((1-(4-(propylsulfonyl)piperazin-1-yl)cyclohexyl)methyl) benzamide Hydrochloride]",118,> 35000
"CCCS(=O)(=O)N1CCN(C2(CNC(=O)c3c(F)cccc3OC)CCCCC2)CC1 [compound 44, 2-Fluoro-6-methoxy-N-((1-(4-(propyl-sulfonyl)piperazin-1-yl)cyclohexyl)methyl) benzamide Hydrochloride]",17,> 75000
"CCCS(=O)(=O)N1CCN(C2(CNC(=O)c3ccc(Cl)cc3OC)CCCCC2)CC1 [compound 45, 4-Chloro-2-methoxy-N-((1-(4-(propyl-sulfonyl)piperazin-1-yl)cyclohexyl)methyl) benzamide Hydrochloride]",322,> 75000
"CCCS(=O)(=O)N1CCN(C2(CNC(=O)c3ccc(F)cc3OC)CCCCC2)CC1 [compound 46, 4-Fluoro-2-methoxy-N-((1-(4-(propyl-sulfonyl)piperazin-1-yl)cyclohexyl)methyl) benzamide Hydrochloride]",357,> 75000
"CCCS(=O)(=O)N1CCN(C2(CNC(=O)c3c(C)cccc3C)CCCCC2)CC1 [compound 47, 2,6-Dimethyl-N-((1-(4-(propylsulfonyl)piperazin-1-yl)cyclohexyl)methyl) benzamide Hydrochloride]",12,> 75000
"CCCS(=O)(=O)N1CCN(C2(CNC(=O)c3c(F)cc(F)cc3F)CCCCC2)CC1 [compound 48, 2,4,6-Trifluoro-N-((1-(4-(propylsulfonyl)piperazin-1-yl)cyclohexyl)methyl) benzamide Hydrochloride]",16,> 75000
"CCCS(=O)(=O)N1CCN(C2(CNC(=O)c3c(C)cccc3F)CCCCC2)CC1 [compound 49, 2-Fluoro-6-methyl-N-((1-(4-(propylsulfonyl)piperazin-1-yl)cyclohexyl)methyl) benzamide Hydrochloride]",16,> 75000
"CCCS(=O)(=O)N1CCN(C2(CNC(=O)c3ccccc3C(F)(F)F)CCCCC2)CC1 [compound 50, N-((1-(4-(Propylsulfonyl)piperazin-1-yl)cyclohexyl)methyl)-2-(trifluoromethyl)benzamide Hydrochloride]",48,> 75000
"CCCS(=O)(=O)N1CCN(C2(CNC(=O)c3c(F)cc(Cl)cc3F)CCCCCC2)CC1 [compound 51, 4-Chloro-2,6-difluoro-N-((1-(4-propylsulfonyl)piperazin-1-yl)cycloheptyl)methyl) benzamide Hydrochloride]",13,> 75000
"CCCS(=O)(=O)N1CCN(C2(CNC(=O)c3ccc(F)cc3OC)CCCCCC2)CC1 [compound 52, 4-Fluoro-2-methoxy-N-((1-(4-(propylsulfonyl)piperazin-1-yl)cycloheptyl)methyl) benzamide Hydrochloride]",404,> 75000
"CCCS(=O)(=O)N1CCN(C2(CNC(=O)c3ccc(Cl)cc3OC)CCCCCC2)CC1 [compound 53, 4-Chloro-2-methoxy-N-((1-(4-(propylsulfonyl)piperazin-1-yl)cycloheptyl)methyl) benzamide Hydrochloride]",373,> 75000
"CCCS(=O)(=O)N1CCN(C2(CNC(=O)c3c(F)ccc(F)c3Cl)CCCCCC2)CC1 [compound 54, 2-Chloro-3,6-difluoro-N-((1-(4-(propylsulfonyl)piperazin-1-yl)cycloheptyl)methyl) benzamide Hydrochloride]",20,> 75000
"CCCS(=O)(=O)N1CCN(C2(CNC(=O)c3c(F)cccc3OC)CCCCCC2)CC1 [compound 55, 2-Fluoro-6-methoxy-N-((1-(4-(propylsulfonyl)piperazin-1-yl)cycloheptyl)methyl) benzamide Hydrochloride]",14,> 75000
"CCCS(=O)(=O)N1CCN(C2(CNC(=O)c3c(N)cccc3Cl)CCCCCC2)CC1 [compound 56, 2-Amino-6-chloro-N-((1-(4-(propylsulfonyl)piperazin-1-yl)cycloheptyl)methyl) benzamide Hydrochloride]",6,39000
"CCCS(=O)(=O)N1CCN(C2(CNC(=O)c3cccc(C(F)(F)F)c3Cl)CCCCCC2)CC1 [compound 59, 2-Chloro-N-((1-(4-(propylsulfonyl)piperazin-1-yl)cycloheptyl)methyl)-3-(trifluoromethyl) benzamide Hydrochloride]",128,> 75000
